Assay results from patent publication US20260174682A1, “GAMMA-AMINOBUTYRIC ACID DERIVATIVE COMPRISING POLYCYCLIC STRUCTURE, METHOD FOR PREPARING SAME, AND USE THEREOF” (ZHONGSHAN INSTITUTE FOR DRUG DISCOVERY, SIMM, CAS., priority 2022, published 2026).
Like-named read-outs stand apart in the source and are kept apart here. Marks after values point to notes of the source that are not given here.

Assays:
[1] = test system: mouse maximum electroshock model (MES); test: Antiepileptic effect in mouse maximum electroshock model (MES); assay type: in vivo; details: MES, ICR mice, gavage, dose 300 mg/kg
Method: A negative vehicle control group, a positive drug control group (pregabalin and gabapentin) and a test group of the compounds of the present application were set. Male ICR mice with a body weight of […] were selected. […] After fasted for 12 h, the mice were administered the compounds of the present application or the control drugs according to the body weight, and then subjected to electrical stimulation to induce generalized tonic-clonic seizure behaviors after a certain lime interval (2 h for pregabalin, 1 h for gabapentin, and 3 h for the compounds of the present application). A YLS-9A electrophysiological stimulator (Shanghai Xinruan Information Technology Co., Ltd.) was used in an induction model, and parameters were set as follows: configuration 8, stimulation voltage 160 V, wave number 90. When the electrical stimulation was performed, ears on both sides of the mice were firstly wiped with normal saline and then given the electrical stimulation for 1 lime with ear clip electrodes. Tonic straightening of hind limbs was used as a standard for epilepsy seizures. The animals with the tonic straightening of hind limbs were regarded as not being protected by the drugs, and the animals without the tonic straightening of hind limbs were regarded as being protected by the drugs. Response situations of the animals were observed and recorded, and obtained data were counted to calculate protection rates of the compounds.
Median effective doses (ED50) of the compounds to be tested for animal protection were calculated by a least square method (Graphpad Prism 5) with an administration dose-protection rate curve.

[2] = test system: mouse model with subcutaneous injection of pentylenetetrazole (sc-PTZ); test: Antiepileptic effect in mouse model with subcutaneous injection of pentylenetetrazole (sc-PTZ); assay type: in vivo
Method: A negative vehicle control group, a positive drug control group (pregabalin and gabapentin) and a test group of the compounds of the present application were set. Male ICR mice with a body weight of 22±2 g were selected. […] After fasted for 12 h, the mice were administered the compounds of the present application or the control drugs, and then subcutaneously injected with pentylenetetrazole (PTZ) to induce epilepsy seizure behaviors after a certain time interval (2 h for pregabalin, 1 h for gabapentin, and 3 h for the compounds of the present application). In an induction model, pentylenetetrazole (PTZ) was dissolved in normal saline and administered to the mice through the way of subcutaneous injection (10 mL/kg, administration dose 100 mg/kg). After the injection of PTZ, behavioral observations on the mice were conducted for 1 h, and the latent periods and numbers of the mice with convulsive seizures, clonic seizures, tonic seizures and death after the injection of PTZ were recorded.
Statistical method: Protection rates and mortality of different administration groups were separately compared with those of the vehicle control group to carry out a Fisher's exact test. The seizure time and the latent periods were analyzed by one-way ANOVA.

[3] = test system: postherpetic neuralgia; details: cited from earlier work
[4] = test system: mouse 6-Hz psychomotor seizure model; test: Antiepileptic effect in mouse 6-Hz psychomotor seizure model; assay type: in vivo; details: 6-Hz model, C57BL/6 mice, gavage, dose 300 mg/kg
Method: A negative vehicle control group, a positive drug control group (pregabalin and gabapentin) and a test group of the compounds of the present application were set. Male C57BL/6 mice with a body weight of 20±2 g were selected. […] After fasted for 12 h, the mice were administered the compounds of the present application or the control drugs, and then subjected to 6-Hz electrical stimulation to induce epilepsy seizure behaviors after a certain time interval (2 h for pregabalin, 1 h for gabapentin, 1 h for levetiracetam, and 3 h for the compounds of the present application). In an induction model, when the stimulation was performed with a Model 4100 stimulator (A-M Systems, the United States), rear necks of the mice were immobilized by hands on a feeding cage, a corneal electrode was moisten with normal saline and allowed to gently contact bilateral corneas of the mice, the electrical stimulator was trod by a foot to give the mice the electrical stimulation with a stimulation parameter of 6-Hz, a one-way square wave of 32 mA, a wave width of 0.2 ms and a stimulation duration of 3 sec, and timing was performed with a stopwatch during the stimulation. After the electrical stimulation was completed, the mice with the seizure behaviors lasting for less than 7 sec were regarded as being protected by the drugs, and the mice with the seizure behaviors lasting for more than 7 sec were regarded as being not protected from the epilepsy by the drugs. Response situations of the animals were observed and recorded, and obtained data were counted to calculate protection rates of the compounds.
Statistical method: The protection rates of different administration groups were separately compared with that of the vehicle control group to carry out a Fisher's exact test.

[5] = test system: diabetic peripheral neuropathic pain; details: cited from earlier work
[6] = sc-PTZ 100 mg/kg, ICR mice, intraperitoneal 30 mg/kg (own compounds calculated by free base), 1 h observation

NCC1(CC(=O)O)CCCCC1 [Gabapentin]
Number of animals with tonic straightening of hind limbs/total number of detected animals [1]: 2/8
Protection rate (%) [1]: 75.0%
Clonic seizure incidence [2, 6]: 10/10
Convulsive seizure incidence [2, 6]: 10/10
Generalized clonic seizure incidence [2, 6]: 10/10
Mortality [2, 6]: 7/10
Tonic seizure incidence [2, 6]: 6/10
improvement of the convulsive seizure incidence and the mortality ([2]; sc-PTZ mice, 30 mg/kg): does not significantly improve
latent periods of generalized clonic seizures, tonic seizures and death ([2]; sc-PTZ mice, 30 mg/kg (calculated by free base), FIG. 6): not effective
clinical effective rate ([3]; daily dose up to 1,800 mg/day): 32%
clinical effective rate ([3]; daily dose up to 2,400 mg/day): 34%
clinical effective rate ([3]; daily dose up to 3,600 mg/day): 43%
Number of animals with clonic seizures/total number [4]: 2/4
Protection rate (%) [4]: 50.0 * %

CNCC[C@H](Oc1cccc2ccccc12)c1cccs1 [duloxetine]
clinical effective rate ([5]; 60 mg/day): 49%
clinical effective rate ([5]; 120 mg/day): 52%
